The text below walks through data of US12398141B2 (SHANGHAI SYNERGY PHARMACEUTICAL SCIENCES CO., LTD, priority 2019, dated 2025).

The structures appear in SMILES notation.

A short description of assay [1]: Collagen-induced rheumatoid arthritis model, clinical score. In kind it is in vivo, mice. Also noted: key: 0-4 per limb by redness/deformity, max 16 per animal. The conditions noted are these: clinical score 0-16 per animal, Day 0 (before modeling). The protocol:
(§1) The effects of compounds H07, H12, H14, H25, H30, H39 and H44 on rheumatoid arthritis in […] were determined after long term administration by using Lewis male […] (Beijing Vital River Laboratory Animal Technology Co., Ltd.), aged 5-6 weeks and weighing […] as test animals. The anti-inflammatory pharmacodynamics characteristic of the compounds of the invention was discussed.
(§2) A certain amount of compounds were taken and dissolved in 4% Tween 80/0.5% hydroxy propyl methyl cellulose solution. A volume of intragastric administration of mice was 10 ml/kg.
(§3) Collagen type II was dissolved in 0.1M acetic acid and kept in a 4° C. refrigerator overnight at a collagen concentration of 4 mg/mL. Same volume of incomplete Freund adjuvant (Sigma, USA) was added in collagen before injection in test, which was emulsified high speed homogenizer (30000 rpm) to prepare a collagen emulsion. This procedure was carried out on ice.
(§4) Mice were immunologically injected with the collagen emulsion by two separate times for modeling on days 1 and 7 (the day before modeling was day 0). 0.1 ml of collagen emulsion prepared as above was injected intradermally into a root of tail at a single point, and 0.2 ml was injected intradermally into back at two points. The animals were subjected to clinical score and paw volume test from day 10 to day 14 after modeling. Animals successfully modeled (average clinical score≥3 points/animal) were assigned to each administration group, with each group included 10 animals. They were administrated intragastrically with above compounds or resolvents at a dosage of 10 mg/kg twice/day, and administrated intragastrically with methotrexate (2 mg/kg, Sigma, USA) every three days, until day 27. During the test, the […] were scored twice a week, and the paw volume and body weight were measured twice.
(§5) According to the different degrees of lesions (redness and joint deformation), the scores were ranged from 0 to 4 points, with the highest score of 4 points for each limb and 16 points for each animal. Scoring standards are as follows: 0, no redness; 1, slight redness on mid legs (tarsals) or ankles; 2, slight redness from ankles to mid legs (tarsals); 3, medium redness from ankles to tarsometatarsal joints; 4, severe redness from toes or fingers to ankles or wrist joints.

The subject of another assay is Lewis male mice. Described as above. The class given is in vivo. Also noted: key: 0-4 per limb by redness/deformity, max 16 per animal. Particulars: clinical score 0-16 per animal, compounds 10 mg/kg twice/day, methotrexate 2 mg/kg every three days. The protocol: as §1, §2, §3, §4, §5

As for `COc1nsc(NC(=O)N2C[C@H]3C[C@H](N(C)c4c(C#N)cnc5[nH]ccc45)C[C@H]3C2)n1` [Compound H07, (3aR,5s,6aS)-4-({2-[(3-methoxy-1,2,4-thiadiazole-5-yl)carbamoyl]-hexahydrocyclopenta[c]pyrrole-5-yl}-methyl-amino)-1H-pyrrolo[2,3-b]pyridin-5-carbonitrile], in assay [1], the “Score Day 0” value is 0.00 ± 0.00. Also, in the assay with Lewis male mice, the “Score Day 13” value turned out to be 3.10 ± 056, the “Score Day 14” value was determined as 4.10 ± 0.41, the “Score Day 18” value was 3.10 ± 0.30 and the “Score Day 21” value was 3.00 ± 0.11. Also, in the assay on Lewis male mice, the “Score Day 25” value was 2.00 ± 0.25 and the “Score Day 27” value was 1.00 ± 0.17.

As to `N#Cc1cnc2[nH]ccc2c1N[C@H]1C[C@@H](NS(=O)(=O)CCC(F)(F)F)C1` [Compound H12, (cis)-4-{[3-(3,3,3-trifluoropropanesulfonamido)-cyclobutyl-1-yl]-amino}-1H-pyrrolo[2,3-b]pyridin-5-carbonitrile], the “Score Day 0” value in assay [1] was 0.00 ± 0.00. Further, in the assay with Lewis male mice, the “Score Day 13” value amounted to 3.40 ± 0.39, the “Score Day 14” value is 3.90 ± 0.61, the “Score Day 18” value worked out at 2.90 ± 0.67 and the “Score Day 21” value was 1.23 ± 0.29. In addition, in the assay with Lewis male mice, the “Score Day 25” value was determined as 0.60 ± 0.17 and the “Score Day 27” value is 0.50 ± 0.14.

On to `CCCS(=O)(=O)N[C@H]1C[C@@H](N(C)c2c(C#N)cnc3[nH]ccc23)C1` [Compound H14, (cis)-4-{[3-(propanesulfonamido)-cyclobutyl-1-yl]-methyl-amino}-1H-pyrrolo[2,3-b]pyridin-5-carbonitrile], for which the “Score Day 0” value in assay [1] worked out at 0.00 ± 0.00. In the assay on Lewis male mice, the “Score Day 13” value was 3.30 ± 0.32, the “Score Day 14” value was 4.10 ± 0.50, the “Score Day 18” value came out at 3.20 ± 0.73 and the “Score Day 21” value came out at 3.20 ± 0.61. In addition, in the assay with Lewis male mice, the “Score Day 25” value was 2.20 ± 0.45 and the “Score Day 27” value is reported as 1.10 ± 0.27.

Consider `CN(c1c(C#N)cnc2[nH]ccc12)[C@H]1C[C@@H]2CN(C(=O)Nc3ccc(Cl)c(C(F)(F)F)c3)C[C@@H]2C1` [Compound H25, (3aR,5s,6aS)-N-(4-chloro-3-(trifluoromethyl)phenyl)-5-((5-cyano-1H-pyrrolo[2,3-b]pyridin-4-yl)(methyl)amino)hexahydrocyclopentadiene[c]pyrrole-2(1H)-carboxamide], for which the “Score Day 0” value in assay [1] amounted to 0.00 ± 0.00. In the assay on Lewis male mice, the “Score Day 13” value came out at 2.90 ± 0.48, the “Score Day 14” value is listed as 3.40 ± 0.27, the “Score Day 18” value was found to be 2.13 ± 0.21 and the “Score Day 21” value stood at 1.10 ± 0.10. In addition, in the assay with Lewis male mice, the “Score Day 25” value amounted to 0.93 ± 0.18 and the “Score Day 27” value is given as 0.74 ± 0.34.

Regarding `CC(C)c1nsc(NC(=O)N2C[C@H]3C[C@H](N(C)c4c(C#N)cnc5[nH]ccc45)C[C@H]3C2)n1` [Compound H30, (3aR,5s,6aS)-4-({2-[(3-isopropyl-1,2,4-thiadiazole-5-yl)carbamoyl]-hexahydrocyclopenta[c]pyrrole-5-yl}-methyl-amino)-1H-pyrrolo[2,3-b]pyridin-5-carbonitrile], the “Score Day 0” value in assay [1] is recorded as 0.00 ± 0.00. In the assay on Lewis male mice, the “Score Day 13” value is 3.20 ± 0.37, the “Score Day 14” value is on record as 4.00 ± 0.45, the “Score Day 18” value was 3.50 ± 0.50 and the “Score Day 21” value was found to be 2.83 ± 0.29. In the assay with Lewis male mice, the “Score Day 25” value was 2.00 ± 0.27 and the “Score Day 27” value turned out to be 1.20 ± 0.27.

Consider `N#Cc1cnc2[nH]ccc2c1N1CC2CN(C(=O)NCC(F)(F)F)CC21` (stereo not shown) [Compound H39, 6-(5-cyano-1H-pyrrolo[2,3-b]pyridin-4-yl)-N-(2,2,2-trifluoroethyl)-3,6-diazabicyclo[3.2.0]heptane-3-carboxamide], for which the “Score Day 0” value in assay [1] is recorded as 0.00 ± 0.00. In the assay with Lewis male mice, the “Score Day 13” value is 3.10 ± 0.44, the “Score Day 14” value was found to be 4.10 ± 0.50, the “Score Day 18” value was 3.0 ± 0.37 and the “Score Day 21” value was found to be 2.33 ± 0.31. In the assay on Lewis male mice, the “Score Day 25” value is reported as 2.20 ± 0.52 and the “Score Day 27” value was found to be 1.10 ± 0.27.

As to `CN(c1c(C#N)cnc2[nH]ccc12)[C@H]1C[C@@H]2CN(C(=O)Nc3nc(OCC(C)(C)N)ns3)C[C@@H]2C1` [Compound H44, (3aR,5s,6aS)-5-((5-cyano-1H-pyrrolo[2,3-b]pyridin-4-yl)(methyl)amino)-N-(3-(2-amino-2-methyl-propoxy)-1,2,4-thiadiazole-5-yl)hexahydrocyclopentadiene[c]pyrrole-2(1H)-carboxamide], in assay [1], the “Score Day 0” value is 0.00 ± 0.00. In the assay on Lewis male mice, the “Score Day 13” value came to 2.80 ± 0.45, the “Score Day 14” value is reported as 3.40 ± 0.27, the “Score Day 18” value is reported as 2.13 ± 0.21 and the “Score Day 21” value is 1.70 ± 0.10. In the assay with Lewis male mice, the “Score Day 25” value came out at 0.83 ± 0.48 and the “Score Day 27” value was found to be 0.64 ± 0.34.
